Experimental data as given in patent publication US20120225123A1, “Use of Synergistic Combinations of an Avermectin and an Antineoplastic Compounds for the Treatment of Hematological Malignancies” (UNIVERSITY HEALTH NETWORK, priority 2009, published 2012).
Like-named read-outs stand apart in the source and are kept apart here.

What was measured:
dogs = conditions: oral; cited from earlier work
[1] = tested on: acute myeloid leukemia (AML) patient samples; assay: Cell viability by Annexin V and PI staining, AML patient samples; assay type: cell-based, human; conditions: 48 hours
Protocol: Primary human acute myeloid leukemia (AML) samples were isolated from fresh bone marrow and peripheral blood samples of consenting patients. Similarly, primary normal hematopoietic cells were obtained from healthy consenting volunteers donating peripheral blood mononuclear cells
(PBSCs) for stem cell transplantation. The mononuclear cells were isolated from the samples by Ficoll density centrifugation. Primary cells were cultured at 37° C. in IMDM supplemented with 20% FCS and appropriate antibiotics.
Cell growth and viability was assessed by the MTS assay (Promega, Madison, Wis.) according to the manufacturer's instructions and as previously described.^12 Cell death was measured by Annexin V-fluoroscein isothiocyanate (FITC) and Propidium Iodide (PI; Biovision Research Products, Mountain View, Calif.) staining and flow cytometry according to the manufacturer's instructions and as previously described.^13 To identify CD34+ cells, a normal PBSC sample was co-stained with PE-anti-CD34+ (Beckman Coulter, Marseille France), and APC-anti-CD45 (Becton Dickenson, San Jose Calif.).
Given the cytotoxicity of IVM toward leukemia cell lines, its cytotoxicity was compared to primary normal hematopoietic cells and acute myeloid leukemia (AML) patient samples (n=4 intermediate risk cytogenetics, n=1 good risk cytogenetics, and n=1 unknown cytogenetics). […]

[2] = tested on: OCI-AML2, K562 and MDAY-D2 leukemia cells in NOD/SCID mice; assay: Mouse models of leukemia, subcutaneous tumors, oral ivermectin; assay type: in vivo
Protocol: MDAY-D2 murine leukemia cells, and K562 and OCI-AML2 human leukemia cells (2.5×10^5) were injected subcutaneously into both flanks of sub-lethally irradiated (3.5 Gy) NOD/SCID mice (Ontario Cancer
Institute, Toronto, ON). Four (OCI-AML2), five (MDAY-D2), or seven (K562) days after injection, once tumors were palpable, mice were then treated daily for 10 days (K562) or treated with 8 doses over 10 days (OCI-AML2) with IVM (3 mg/kg) by oral gavage in water or vehicle control (n=10 per group). […] Tumor volume (tumor length x width^2×0.5236) was measured three times a week using calipers. Fourteen (MDAY-D2), 15 (OCI-AML2) or 17 (K562) days after injection of cells, mice were sacrificed, tumors excised and the volume and weight of the tumors were measured.
Given the effects of IVM as a potential anti-leukemic agent, IVM was evaluated in mouse models of leukemia. Human leukemia (OCI-AML2 and K562) and murine leukemia (MDAY-D2) cells (MDAY-D2, OCI-AML2 and K562) were injected subcutaneously into the flank of NOD/SCID mice. Four (OCI-AML2), five (MDAY-D2), or seven (K562) days after injection, once tumors were palpable, mice were then treated daily for 10 days (K562) or treated with 8 doses over 10 days (OCI-AML2) with IVM (3 mg/kg) by oral gavage in water or vehicle control (n=10 per group). […] Tumor volume and weight was measured over time.

OCI-AML2 cells [3] = assay: Plasma membrane potential, DiBAC4(3) staining, OCI-AML2; assay type: cell-based, human; conditions: for plasma membrane polarization: 5 hours
Protocol: Plasma membrane potential was measured as previously described.^18 Briefly, cells treated with IVM or buffer control in RPM1, chloride replete medium (140 mM sodium chloride, 5 mM potassium chloride, 1 mM magnesium sulfate, 1.8 mM calcium acetate, 10 mM glucose, 10 mM HEPES and 0.1% (wt/v) BSA), or chloride free media where equimolar gluconate salts of sodium and potassium replaced the sodium chloride in the chloride replete medium. After incubation, cells were stained with DiBAC4(3) (final concentration 30 nM) and fluorescence determined by flow cytometry (BD FACS Canto, Becton Dickinson, San Jose, Calif.) (excitation=488 nm, emission=516 nm) Analysis was conducted using FACSDiva Software (BD Biosciences). Calibration curves were prepared using phosphate buffers with varying potassium ion concentrations as previously described.^18

[4] = tested on: STAT1 mRNA in U937 and HL60 leukemia cells; assay: Gene expression by Q-RT-PCR, U937 and HL60; assay type: cell-based, human
Protocol: (§1) Gene expression changes were evaluated in OCI AML2, 0937, HL60, DU145 and PPC-1 cells by real-time Q-RT-PCRas described previously^15, 47. The expression level of STAT1A, STAT1B, TRIM22, OAS1 and IFIT3 before and after incubation of leukemia cells with ivermectin was evaluated.

[5] = tested on: STAT1 and target genes IFIT3, OAS1 and TRIM22 in OCI-AML2 cells; assay: Gene expression by Q-RT-PCR, OCI-AML2; assay type: cell-based, human; conditions: after ivermectin treatment, Q-RT-PCR
Protocol: Leukemia cells were treated with buffer control or ivermectin (3 μM) for 30 and 40 hours. After treatment, cells were harvested, total RNA was isolated. Total RNA (10 μg) was used for cRNA amplification using the Invitrogen SuperScript kit (Life Technologies, Inc., Burlington, ON, Canada). Amplification and biotin labeling of antisense cRNA was performed using the Enzo® BioArray™ High Yield™ RNA transcript labeling kit (Enzo Diagnostics, Farmingdale, N.Y., USA), according to the manufacturer's instructions. RNA was then hybridized to Affymetrix HG U133 Plus 2.0 gene expression oligonucleotide arrays (Affymetrix, Santa Clara, Calif., USA). Microarray slides were scanned using the GeneArray 2500 scanner (Agilent Technologies). Microarray data were analyzed using GeneSpring GX v10.0 (Agilent), and lists of genes deregulated>2-fold after 30 and 40 hr ivermectin treatment were derived. Pathways and gene ontology analyses were carried out using Ingenuity Pathways Analysis (www.ingenuity.com); and the Database for Annotation, Visualization and Integrated Discovery (DAVID; http://david.abcc.ncifcrf.gov). […]
as §1

[6] = cited from earlier work
OCI-AML2 cells [7] = assay: Cytosolic calcium, Indo-1 AM staining; assay type: cell-based, human
Protocol: Changes in cytosolic calcium concentration were detected with the fluorescent dye, Indo-1 AM (final concentration 6 μM) as previously described. ^17
Plasma membrane hyperpolarization can lead to calcium influx^23. Therefore, the effects of IVM on calcium influx in leukemia cells was tested. OCI-AML2 cells were treated with IVM and the concentration of intracellular calcium was measured by staining cells with the ratiometric dye, Indo-1 AM.

mice = conditions: oral; cited from earlier work

For ivermectin, which LD50 (dogs) is on record?
The LD50 was roughly 80 mg/kg.

What about the cytotoxicity [1] of the same substance?
Its cytotoxicity is “cytotoxic to AML patient samples at low micromolar concentrations”.

And the tolerability ([2]; MDAY-D2 mice, dosage escalated 3 to 6 mg/kg)?
The tolerability was “well tolerated”.

What about the “decrease in tumor weight and volume compared to buffer control” value ([2]; oral gavage 3 mg/kg (MDAY-D2 escalated to 6 mg/kg), all 3 models, p<0.05) of the same substance?
Its value is “up to 70%”.

And the gross organ toxicity ([2]; oral ivermectin, all 3 models)?
The gross organ toxicity was “without any gross organ toxicity”.

And the plasma membrane polarization (OCI-AML2 cells [3]; chloride deplete buffer)?
Its plasma membrane polarization is “caused plasma membrane depolarization”.

What about the plasma membrane polarization (OCI-AML2 cells [3]; chloride replete buffer) of the same substance?
The plasma membrane polarization was “induced plasma membrane hyperpolarization”.

What about the plasma membrane potential (OCI-AML2 cells [3]; RPMI medium, as early as after 1 hour of treatment) of the same substance?
The plasma membrane potential was “induced membrane hyperpolarization in a dose dependent manner”.

And the “STAT1 mRNA” value [4]?
Its value is “demonstrated increased STAT1 mRNA”.

And the “expression of STAT1 and target genes” value [5]?
The value was “upregulation of STAT1 and target genes IFIT3, OAS1 and TRIM22”.

And the adverse effects ([6]; healthy volunteers, oral, dose of 120 (~2 mg/kg))?
The adverse effects was “no serious adverse effects were noted”.

What about the adverse effects ([6]; patients with spinal injury, up to 1.6 mg/kg subcutaneously twice weekly for up to 12 weeks) of the same substance?
Its adverse effects is “no significant adverse effects were reported”.

And the intracellular calcium (OCI-AML2 cells [7])?
The intracellular calcium was “increased intracellular calcium”.

What about the LD50 (mice) of the same substance?
The LD50 was 28 to 30 mg/kg.
